# Experimental data from patent US7074789B2, “Kinase inhibitors” (Amgen Inc., priority 1999, dated 2006).
# What was measured:
# Assay type in all cases: biochemical
# [1] = target: T1, Lck (Homo sapiens, UniProt P06239); assay: Kinase inhibition assay (33P transfer), Lck; conditions: Table 3; read-out: Lck-1
# T1 construct: Kinases are expressed as either kinase domains or full length constructs; made in house
# Method in brief: (§1)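 GST/His-tagged kinase (domain or full length; E. coli or baculovirus) + [33P]ATP on plates coated with poly(Glu,Tyr) 4:1 or poly(Arg,Ser) 3:1; incubate, wash 0.5% H3PO4, add scintillant, count.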
# [2] = target: T2, Src (Homo sapiens, UniProt P12931); assay: Kinase inhibition assay (33P transfer), Src; conditions: Table 6, Src-1 kinase inhibition class
# T2 construct: Kinases are expressed as either kinase domains or full length constructs; made in house
# Method in brief: (§2)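 Activity read as 33P incorporation from ATP into poly(Glu,Tyr) 4:1 or poly(Arg,Ser) 3:1 substrate bound to microtiter plates, measured by scintillation after acid washing. Enzymes were affinity-purified GST or polyHis fusions (kinase domain or full length) from E. coli or baculovirus; IC50 = 50% reduction in labelled phosphate.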
# [3] = target: T3, Fyn (Homo sapiens, UniProt P06241); assay: Kinase inhibition assay (33P transfer), Fyn; conditions: read-out: Fyn-1
# T3 construct: Kinases are expressed as either kinase domains or full length constructs; made in house
# Method in brief: as §2
# [4] = target: T4, Zap-70 (Homo sapiens, UniProt P43403); assay: Kinase inhibition assay (33P transfer), Zap-70; conditions: Table 3; read-out: Zap-1
# T4 construct: Kinases are expressed as either kinase domains or full length constructs; made in house
# T4 sequence (P43403 1-619): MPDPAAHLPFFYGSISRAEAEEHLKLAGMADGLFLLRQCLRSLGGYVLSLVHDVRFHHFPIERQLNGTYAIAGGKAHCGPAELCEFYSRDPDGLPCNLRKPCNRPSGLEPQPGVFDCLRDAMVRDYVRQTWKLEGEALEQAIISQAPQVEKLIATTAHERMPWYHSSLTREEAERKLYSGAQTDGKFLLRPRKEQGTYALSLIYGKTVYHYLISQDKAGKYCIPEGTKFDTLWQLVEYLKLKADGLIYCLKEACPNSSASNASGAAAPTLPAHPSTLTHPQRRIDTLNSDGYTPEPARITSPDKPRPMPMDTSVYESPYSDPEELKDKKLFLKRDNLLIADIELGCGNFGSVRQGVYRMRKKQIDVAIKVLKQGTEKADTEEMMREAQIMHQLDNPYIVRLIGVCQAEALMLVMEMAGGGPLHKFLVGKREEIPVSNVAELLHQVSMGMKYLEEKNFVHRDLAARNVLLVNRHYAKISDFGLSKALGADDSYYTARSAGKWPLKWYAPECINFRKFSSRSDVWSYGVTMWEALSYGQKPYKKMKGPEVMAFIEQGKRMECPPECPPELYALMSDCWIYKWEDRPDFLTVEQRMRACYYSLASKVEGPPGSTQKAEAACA
# Method in brief: as §1
# [5] = target: T5, Itk (Homo sapiens, UniProt Q08881); assay: Kinase inhibition assay (33P transfer), Itk; conditions: Table 3; read-out: Itk-1
# T5 construct: Kinases are expressed as either kinase domains or full length constructs; made in house
# T5 sequence (Q08881 1-620): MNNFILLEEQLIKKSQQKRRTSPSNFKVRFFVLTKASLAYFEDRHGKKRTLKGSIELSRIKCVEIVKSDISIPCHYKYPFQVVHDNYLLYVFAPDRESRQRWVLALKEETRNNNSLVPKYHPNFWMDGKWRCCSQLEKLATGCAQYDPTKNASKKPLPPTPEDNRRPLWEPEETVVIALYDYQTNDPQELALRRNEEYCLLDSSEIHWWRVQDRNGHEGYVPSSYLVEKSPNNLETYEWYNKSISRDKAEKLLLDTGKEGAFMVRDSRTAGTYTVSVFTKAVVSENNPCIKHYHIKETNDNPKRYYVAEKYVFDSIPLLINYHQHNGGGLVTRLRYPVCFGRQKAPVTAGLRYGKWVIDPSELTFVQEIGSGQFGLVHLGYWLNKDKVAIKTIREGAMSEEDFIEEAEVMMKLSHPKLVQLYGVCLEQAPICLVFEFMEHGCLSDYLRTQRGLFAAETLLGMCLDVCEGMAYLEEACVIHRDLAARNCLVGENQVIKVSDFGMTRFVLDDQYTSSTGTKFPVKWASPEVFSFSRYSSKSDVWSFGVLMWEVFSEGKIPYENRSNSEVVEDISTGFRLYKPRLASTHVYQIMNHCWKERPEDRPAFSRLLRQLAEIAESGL
# Method in brief: as §2
# [6] = target: T6, EGFR (Homo sapiens, UniProt P00533); assay: Kinase inhibition assay (33P transfer), EGFR; conditions: Table 2, kinase inhibition class; read-out: EGFR-1
# T6 construct: Kinases are expressed as either kinase domains or full length constructs; made in house
# Method in brief: as §2
# [7] = target: T7, Kdr (Homo sapiens, UniProt P35968); assay: Kinase inhibition assay (33P transfer), Kdr; conditions: Table 3; read-out: KDR-1
# T7 construct: Kinases are expressed as either kinase domains or full length constructs; made in house
# Method in brief: as §1
# [8] = target: T8, Flt-1 (Homo sapiens, UniProt P17948); assay: Kinase inhibition assay (33P transfer), Flt-1
# T8 construct: Kinases are expressed as either kinase domains or full length constructs; made in house
# Method in brief: as §2
# [9] = target: T9, PDGFRB (Homo sapiens, UniProt P09619); assay: Kinase inhibition assay (33P transfer), PDGFRB; conditions: read-out: PDGFRB-1
# T9 construct: Kinases are expressed as either kinase domains or full length constructs; made in house
# [10] = target: T10, Hck-1 (Homo sapiens, UniProt P08631); assay: Kinase inhibition assay (33P transfer), Hck; conditions: Table 6, Hck-1 kinase inhibition class
# T10 construct: Kinases are expressed as either kinase domains or full length constructs; made in house
# [11] = target: T11, FGFR1 (Homo sapiens, UniProt P11362); assay: Kinase inhibition assay (33P transfer), FGFR1; conditions: read-out: FGFR1-1
# T11 construct: Kinases are expressed as either kinase domains or full length constructs; made in house
# [12] = target: T12, Tek (Homo sapiens, UniProt Q02763); assay: Kinase inhibition assay (33P transfer), Tek; conditions: read-out: Tek-1
# T12 construct: Kinases are expressed as either kinase domains or full length constructs; made in house
# Method in brief: as §2
# T10 sequence (P08631 whole entry, the tested form may be a part): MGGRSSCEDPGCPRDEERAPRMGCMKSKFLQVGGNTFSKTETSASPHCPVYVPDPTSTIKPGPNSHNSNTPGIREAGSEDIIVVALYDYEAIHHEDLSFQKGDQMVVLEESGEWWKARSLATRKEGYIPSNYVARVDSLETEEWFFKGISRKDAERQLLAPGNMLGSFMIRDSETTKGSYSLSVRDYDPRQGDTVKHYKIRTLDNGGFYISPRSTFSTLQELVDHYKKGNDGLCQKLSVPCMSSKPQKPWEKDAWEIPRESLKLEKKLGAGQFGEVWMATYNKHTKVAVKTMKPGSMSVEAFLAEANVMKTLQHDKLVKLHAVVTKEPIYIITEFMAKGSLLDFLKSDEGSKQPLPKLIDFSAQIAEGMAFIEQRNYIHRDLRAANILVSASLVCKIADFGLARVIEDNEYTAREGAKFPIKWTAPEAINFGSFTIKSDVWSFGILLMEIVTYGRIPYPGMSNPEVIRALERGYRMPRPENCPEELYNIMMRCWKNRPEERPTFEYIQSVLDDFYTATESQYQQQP
# T1 sequence (P06239 whole entry, species assumed, the tested form may be a part): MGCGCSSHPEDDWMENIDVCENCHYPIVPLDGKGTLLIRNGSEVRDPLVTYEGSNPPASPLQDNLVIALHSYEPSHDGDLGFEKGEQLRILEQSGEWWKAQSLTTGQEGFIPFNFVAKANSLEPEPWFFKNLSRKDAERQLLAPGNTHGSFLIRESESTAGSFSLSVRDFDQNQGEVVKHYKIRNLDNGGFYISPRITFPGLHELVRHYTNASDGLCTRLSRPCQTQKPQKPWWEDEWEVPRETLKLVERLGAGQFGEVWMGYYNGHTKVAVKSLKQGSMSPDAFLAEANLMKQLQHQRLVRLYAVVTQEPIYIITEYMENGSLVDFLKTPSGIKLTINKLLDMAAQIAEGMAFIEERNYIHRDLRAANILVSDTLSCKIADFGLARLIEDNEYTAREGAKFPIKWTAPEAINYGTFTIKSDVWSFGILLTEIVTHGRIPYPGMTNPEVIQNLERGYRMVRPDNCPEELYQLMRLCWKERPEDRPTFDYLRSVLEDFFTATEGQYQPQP
# T2 sequence (P12931 whole entry, species assumed, the tested form may be a part): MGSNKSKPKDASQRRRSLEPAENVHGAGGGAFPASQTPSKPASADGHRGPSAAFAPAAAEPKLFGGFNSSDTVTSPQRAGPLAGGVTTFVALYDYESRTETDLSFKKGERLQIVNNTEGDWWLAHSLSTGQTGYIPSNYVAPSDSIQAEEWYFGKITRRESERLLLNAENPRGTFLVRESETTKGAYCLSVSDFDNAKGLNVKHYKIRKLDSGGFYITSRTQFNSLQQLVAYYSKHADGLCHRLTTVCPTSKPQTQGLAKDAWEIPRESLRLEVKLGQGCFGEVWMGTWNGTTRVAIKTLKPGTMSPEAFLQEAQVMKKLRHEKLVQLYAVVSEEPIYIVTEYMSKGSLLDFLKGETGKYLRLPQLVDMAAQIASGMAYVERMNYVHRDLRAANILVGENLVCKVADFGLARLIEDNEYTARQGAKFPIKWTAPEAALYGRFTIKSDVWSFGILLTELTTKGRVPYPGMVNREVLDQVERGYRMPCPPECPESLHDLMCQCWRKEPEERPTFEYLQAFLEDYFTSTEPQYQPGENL
# T11 sequence (P11362 22-822, species assumed): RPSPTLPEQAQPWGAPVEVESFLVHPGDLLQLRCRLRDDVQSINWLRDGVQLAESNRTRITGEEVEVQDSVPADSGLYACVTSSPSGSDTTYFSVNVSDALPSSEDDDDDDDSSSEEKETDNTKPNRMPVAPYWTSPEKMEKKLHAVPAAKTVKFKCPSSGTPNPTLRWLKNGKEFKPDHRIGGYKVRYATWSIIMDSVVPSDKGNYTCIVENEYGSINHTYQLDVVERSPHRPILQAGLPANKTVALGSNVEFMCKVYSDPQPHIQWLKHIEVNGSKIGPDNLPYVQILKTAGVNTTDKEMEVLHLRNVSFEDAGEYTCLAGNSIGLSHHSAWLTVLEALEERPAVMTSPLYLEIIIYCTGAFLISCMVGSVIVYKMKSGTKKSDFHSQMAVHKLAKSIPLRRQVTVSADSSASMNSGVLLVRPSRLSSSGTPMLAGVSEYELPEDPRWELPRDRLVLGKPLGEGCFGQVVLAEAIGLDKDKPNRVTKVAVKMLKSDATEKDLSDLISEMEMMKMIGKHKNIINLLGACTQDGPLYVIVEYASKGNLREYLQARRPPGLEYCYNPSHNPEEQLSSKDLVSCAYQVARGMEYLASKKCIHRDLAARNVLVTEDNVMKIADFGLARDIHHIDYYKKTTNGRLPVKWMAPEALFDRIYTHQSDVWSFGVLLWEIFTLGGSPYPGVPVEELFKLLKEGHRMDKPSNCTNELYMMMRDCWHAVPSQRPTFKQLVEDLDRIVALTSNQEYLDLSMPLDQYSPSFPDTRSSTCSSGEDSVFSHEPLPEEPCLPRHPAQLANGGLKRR
# T12 sequence (Q02763 23-1124, species assumed): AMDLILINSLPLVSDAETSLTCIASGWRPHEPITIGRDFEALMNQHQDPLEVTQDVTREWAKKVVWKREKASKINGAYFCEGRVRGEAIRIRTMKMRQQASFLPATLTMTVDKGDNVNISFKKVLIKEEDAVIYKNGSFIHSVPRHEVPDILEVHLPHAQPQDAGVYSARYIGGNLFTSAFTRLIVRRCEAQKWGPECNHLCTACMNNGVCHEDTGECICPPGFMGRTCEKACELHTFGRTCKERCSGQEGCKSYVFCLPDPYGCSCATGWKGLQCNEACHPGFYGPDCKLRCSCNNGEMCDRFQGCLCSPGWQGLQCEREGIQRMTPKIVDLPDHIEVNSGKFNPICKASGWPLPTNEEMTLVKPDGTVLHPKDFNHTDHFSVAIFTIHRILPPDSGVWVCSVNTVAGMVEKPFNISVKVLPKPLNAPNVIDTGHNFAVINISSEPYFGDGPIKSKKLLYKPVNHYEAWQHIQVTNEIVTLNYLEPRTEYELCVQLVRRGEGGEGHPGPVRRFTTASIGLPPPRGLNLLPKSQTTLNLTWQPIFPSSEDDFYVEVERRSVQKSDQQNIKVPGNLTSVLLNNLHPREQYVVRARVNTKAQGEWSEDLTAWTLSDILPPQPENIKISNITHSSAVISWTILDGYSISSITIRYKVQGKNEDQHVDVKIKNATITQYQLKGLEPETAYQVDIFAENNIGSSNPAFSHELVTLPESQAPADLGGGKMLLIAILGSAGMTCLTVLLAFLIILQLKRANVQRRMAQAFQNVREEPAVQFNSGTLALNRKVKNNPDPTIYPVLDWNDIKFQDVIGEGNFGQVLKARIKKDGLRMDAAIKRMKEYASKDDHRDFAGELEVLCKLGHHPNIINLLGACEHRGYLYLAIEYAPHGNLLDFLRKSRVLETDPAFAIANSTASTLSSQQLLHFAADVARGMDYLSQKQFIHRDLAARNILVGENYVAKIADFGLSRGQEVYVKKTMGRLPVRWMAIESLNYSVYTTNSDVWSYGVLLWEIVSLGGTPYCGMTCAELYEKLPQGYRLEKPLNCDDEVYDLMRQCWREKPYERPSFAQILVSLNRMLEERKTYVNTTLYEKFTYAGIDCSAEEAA
# T9 sequence (P09619 33-1106, species assumed): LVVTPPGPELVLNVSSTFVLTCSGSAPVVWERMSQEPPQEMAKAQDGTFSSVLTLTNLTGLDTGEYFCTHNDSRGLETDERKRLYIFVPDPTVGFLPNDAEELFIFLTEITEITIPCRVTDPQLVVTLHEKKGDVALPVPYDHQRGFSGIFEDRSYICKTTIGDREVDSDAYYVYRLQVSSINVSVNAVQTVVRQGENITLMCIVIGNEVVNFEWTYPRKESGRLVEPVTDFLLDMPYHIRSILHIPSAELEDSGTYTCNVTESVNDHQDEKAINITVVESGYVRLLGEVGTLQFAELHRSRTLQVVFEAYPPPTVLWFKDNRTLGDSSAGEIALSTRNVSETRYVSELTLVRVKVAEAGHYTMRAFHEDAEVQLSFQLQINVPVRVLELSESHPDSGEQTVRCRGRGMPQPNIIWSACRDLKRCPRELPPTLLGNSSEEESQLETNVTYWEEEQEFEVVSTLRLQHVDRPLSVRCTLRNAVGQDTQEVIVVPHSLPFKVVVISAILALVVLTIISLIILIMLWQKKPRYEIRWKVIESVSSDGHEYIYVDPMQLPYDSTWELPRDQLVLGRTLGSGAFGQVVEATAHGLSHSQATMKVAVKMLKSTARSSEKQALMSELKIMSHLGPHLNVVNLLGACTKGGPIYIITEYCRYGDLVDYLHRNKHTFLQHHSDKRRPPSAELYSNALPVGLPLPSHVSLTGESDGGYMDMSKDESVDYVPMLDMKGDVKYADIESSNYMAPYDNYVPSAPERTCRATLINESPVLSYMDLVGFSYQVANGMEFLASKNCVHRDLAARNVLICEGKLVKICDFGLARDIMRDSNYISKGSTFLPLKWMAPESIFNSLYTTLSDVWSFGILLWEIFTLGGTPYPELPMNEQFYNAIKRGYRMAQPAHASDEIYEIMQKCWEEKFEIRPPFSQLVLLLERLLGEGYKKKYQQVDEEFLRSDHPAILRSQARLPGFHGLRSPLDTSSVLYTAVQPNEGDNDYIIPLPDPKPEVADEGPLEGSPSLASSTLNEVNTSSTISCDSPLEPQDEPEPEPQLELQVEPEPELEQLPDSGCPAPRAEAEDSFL
Compound,IC50 [1],IC50 [2],IC50 [3],IC50 [4],IC50 [5],IC50 [6],IC50 [7],IC50 [8],IC50 [9],IC50 [10],IC50 [11],IC50 [12]
COc1cc(Nc2ncnc(Nc3ccc(N(C)C)cc3)n2)cc(OC)c1OC [Compound 27],1.01 to 6.05 µM,1.01 to 6.05 µM,1.01 to 6.05 µM,> 11.4 µM,> 11.4 µM,6.05 to 8.83 µM,< 1.01 µM,< 1.01 µM,> 11.4 µM,> 11.4 µM,1.01 to 6.05 µM,
COc1cc(Nc2ncnc(Nc3ccc(Oc4ccccc4)cc3)n2)cc(OC)c1OC [Compound 29],< 0.898 µM,< 0.898 µM,< 0.898 µM,> 10.1 µM,> 10.1 µM,< 0.898 µM,< 0.898 µM,< 0.898 µM,0.898 to 5.39 µM,> 10.1 µM,< 0.898 µM,> 10.1 µM
COc1cc(Nc2ncnc(Nc3ccc(C(N)=O)cc3)n2)cc(OC)c1OC [Compound 33],8.83 to 11.4 µM,1.01 to 6.05 µM,6.05 to 8.83 µM,> 11.4 µM,> 11.4 µM,> 11.4 µM,1.01 to 6.05 µM,> 11.4 µM,8.83 to 11.4 µM,> 11.4 µM,6.05 to 8.83 µM,> 11.4 µM
COc1cc(Nc2ncnc(Nc3ccc(F)c(Cl)c3)n2)cc(OC)c1OC [Compound 61],< 0.986 µM,< 0.986 µM,< 0.986 µM,> 11.1 µM,> 11.1 µM,< 0.986 µM,< 0.986 µM,< 0.986 µM,< 0.986 µM,> 11.1 µM,> 11.1 µM,
COc1cc(Nc2ncnc(Nc3cccc(C)c3)n2)cc(OC)c1OC [Compound 64],1.09 to 6.53 µM,< 1.09 µM,1.09 to 6.53 µM,9.53 to 12.2 µM,> 12.2 µM,< 1.09 µM,1.09 to 6.53 µM,> 12.2 µM,9.53 to 12.2 µM,> 12.2 µM,> 12.2 µM,> 12.2 µM
COc1cc(Nc2ncnc(Nc3ccccc3F)n2)cc(OC)c1OC [Compound 65],9.42 to 12.1 µM,1.08 to 6.46 µM,> 12.1 µM,> 12.1 µM,> 12.1 µM,< 1.08 µM,1.08 to 6.46 µM,1.08 to 6.46 µM,< 1.08 µM,> 12.1 µM,> 12.1 µM,> 12.1 µM
COc1cc(Nc2ncnc(Nc3ccc(C(C)C)cc3)n2)cc(OC)c1OC [Compound 66],1.01 to 6.07 µM,< 1.01 µM,> 11.4 µM,6.07 to 8.85 µM,> 11.4 µM,> 11.4 µM,1.01 to 6.07 µM,> 11.4 µM,> 11.4 µM,> 11.4 µM,> 11.4 µM,6.07 to 8.85 µM
COc1cc(Nc2ncnc(Nc3ccccc3C)n2)cc(OC)c1OC [Compound 67],1.09 to 6.53 µM,1.09 to 6.53 µM,9.53 to 12.2 µM,> 12.2 µM,> 12.2 µM,6.53 to 9.53 µM,1.09 to 6.53 µM,9.53 to 12.2 µM,1.09 to 6.53 µM,> 12.2 µM,> 12.2 µM,> 12.2 µM
COc1cc(Nc2ncnc(Nc3cc(Cl)c(O)c(Cl)c3)n2)cc(OC)c1OC [Compound 68],< 0.913 µM,< 0.913 µM,> 10.3 µM,> 10.3 µM,> 10.3 µM,< 0.913 µM,< 0.913 µM,< 0.913 µM,0.913 to 5.48 µM,> 10.3 µM,> 10.3 µM,> 10.3 µM
COc1cc(Nc2ncnc(Nc3ccc(Cl)cc3)n2)cc(OC)c1OC [Compound 72],1.03 to 6.19 µM,,,> 11.6 µM,> 11.6 µM,1.03 to 6.19 µM,< 1.03 µM,< 1.03 µM,< 1.03 µM,,< 1.03 µM,> 11.6 µM
C#Cc1cccc(Nc2ncnc(Nc3cc(OC)c(OC)c(OC)c3)n2)c1 [Compound 74],1.06 to 6.36 µM,1.06 to 6.36 µM,> 11.9 µM,> 11.9 µM,> 11.9 µM,< 1.06 µM,1.06 to 6.36 µM,,,> 11.9 µM,,> 11.9 µM
COc1cc(Nc2ncnc(Nc3cc(OC)c(OC)c(OC)c3)n2)cc(OC)c1OC [Compound 76],0.902 to 5.41 µM,< 0.902 µM,0.902 to 5.41 µM,> 10.1 µM,> 10.1 µM,7.89 to 10.1 µM,0.902 to 5.41 µM,,,> 10.1 µM,,> 10.1 µM
COc1cc(Nc2ncnc(Nc3ccc(Br)cc3)n2)cc(OC)c1OC [Compound 82],0.925 to 5.55 µM,,,> 10.4 µM,> 10.4 µM,0.925 to 5.55 µM,< 0.925 µM,< 0.925 µM,< 0.925 µM,,0.925 to 5.55 µM,> 10.4 µM
COc1cc(Nc2ncnc(Nc3cc(C)[nH]n3)n2)cc(OC)c1OC [Compound 88],1.12 to 6.72 µM,1.12 to 6.72 µM,1.12 to 6.72 µM,> 12.6 µM,1.12 to 6.72 µM,9.79 to 12.6 µM,< 1.12 µM,,,9.79 to 12.6 µM,,> 12.6 µM
COc1cc(Nc2ncnc(Nc3ccc4c(c3)Cc3ccccc3-4)n2)cc(OC)c1OC [Compound 95],0.906 to 5.44 µM,> 10.2 µM,0.906 to 5.44 µM,7.93 to 10.2 µM,> 10.2 µM,> 10.2 µM,0.906 to 5.44 µM,,,> 10.2 µM,,> 10.2 µM
COc1cc(Nc2ncnc(Nc3ccc(N4CCOCC4)cc3)n2)cc(OC)c1OC [Compound 101],5.47 to 7.98 µM,0.912 to 5.47 µM,0.912 to 5.47 µM,> 10.3 µM,> 10.3 µM,> 10.3 µM,0.912 to 5.47 µM,,,> 10.3 µM,,7.98 to 10.3 µM
COc1cccc(-c2ncnc(Nc3cc(OC)c(OC)c(OC)c3)n2)c1 [Compound 232],1.09 to 6.51 µM,> 12.2 µM,> 12.2 µM,> 12.2 µM,> 12.2 µM,6.51 to 9.5 µM,1.09 to 6.51 µM,,,> 12.2 µM,,> 12.2 µM
COC(=O)c1cccc(Nc2nc3ccccc3n2-c2ncnc(Nc3cc(OC)c(OC)c(OC)c3)n2)c1 [Compound 383],4.55 to 6.63 µM,,,> 8.53 µM,4.55 to 6.63 µM,> 8.53 µM,0.758 to 4.55 µM,,,,,4.55 to 6.63 µM
COc1cc(Nc2ncnc(NC(=O)Nc3ccccc3)n2)cc(OC)c1OC [Compound 852],> 11.4 µM,> 11.4 µM,> 11.4 µM,8.83 to 11.4 µM,> 11.4 µM,> 11.4 µM,6.05 to 8.83 µM,> 11.4 µM,8.83 to 11.4 µM,> 11.4 µM,> 11.4 µM,
